Measurements as given in the supplement of paper PMC10307832.

How the values were obtained:
Assay in all cases: relative viability (nuclei count vs DMSO), 5 days (fraction); higher = more cells survive
Tipifarnib + Navitoclax = compound: Cn1cncc1[C@@](N)(c1ccc(Cl)cc1)c1ccc2c(c1)c(-c1cccc(Cl)c1)cc(=O)n2C [Tipifarnib] + CC1(C)CCC(c2ccc(Cl)cc2)=C(CN2CCN(c3ccc(C(=O)NS(=O)(=O)c4ccc(N[C@H](CCN5CCOCC5)CSc5ccccc5)c(S(=O)(=O)C(F)(F)F)c4)cc3)CC2)C1 [Navitoclax] (partner 0.5 µM)
How it was run: (§1)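 Medians of duplicate plates are given as relative viability. That measure is the nuclei count in treated wells divided by the count in vehicle wells. Counts were taken on 4× images of lung cancer cell lines in 1536-well plates, 5 days after pin-tool dosing the day after seeding with one drug alone or a fixed anchor-drug dose plus five library-drug doses (not always all listed) in √10 steps.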

Tipifarnib + Luminespib = compound: Cn1cncc1[C@@](N)(c1ccc(Cl)cc1)c1ccc2c(c1)c(-c1cccc(Cl)c1)cc(=O)n2C [Tipifarnib] + CCNC(=O)c1noc(-c2cc(C(C)C)c(O)cc2O)c1-c1ccc(CN2CCOCC2)cc1 [Luminespib] (partner 0.01 µM)
How it was run: as §1

Tipifarnib + Foretinib = compound: Cn1cncc1[C@@](N)(c1ccc(Cl)cc1)c1ccc2c(c1)c(-c1cccc(Cl)c1)cc(=O)n2C [Tipifarnib] + COc1cc2c(Oc3ccc(NC(=O)C4(C(=O)Nc5ccc(F)cc5)CC4)cc3F)ccnc2cc1OCCCN1CCOCC1 [Foretinib] (partner 0.25 µM)
How it was run: as §1

Tipifarnib + Linsitinib = compound: Cn1cncc1[C@@](N)(c1ccc(Cl)cc1)c1ccc2c(c1)c(-c1cccc(Cl)c1)cc(=O)n2C [Tipifarnib] + C[C@]1(O)C[C@@H](c2nc(-c3ccc4ccc(-c5ccccc5)nc4c3)c3c(N)nccn32)C1 [Linsitinib] (partner 1 µM)
How it was run: as §1

| Cell Line | relative viability (Tipifarnib + Navitoclax; first compound 0.01 µM) | relative viability (Tipifarnib + Navitoclax; first compound 0.03162 µM) | relative viability (Tipifarnib + Navitoclax; first compound 0.1 µM) | relative viability (Tipifarnib + Navitoclax; first compound 0.3162 µM) | relative viability (Tipifarnib + Navitoclax; first compound 1 µM) | relative viability (Tipifarnib + Luminespib; first compound 0.01 µM) | relative viability (Tipifarnib + Luminespib; first compound 0.03162 µM) | relative viability (Tipifarnib + Luminespib; first compound 0.1 µM) | relative viability (Tipifarnib + Luminespib; first compound 0.3162 µM) | relative viability (Tipifarnib + Luminespib; first compound 1 µM) | relative viability (Tipifarnib + Foretinib; first compound 0.01 µM) | relative viability (Tipifarnib + Foretinib; first compound 0.03162 µM) | relative viability (Tipifarnib + Foretinib; first compound 0.1 µM) | relative viability (Tipifarnib + Foretinib; first compound 0.3162 µM) | relative viability (Tipifarnib + Foretinib; first compound 1 µM) | relative viability (Tipifarnib + Linsitinib; first compound 0.01 µM) | relative viability (Tipifarnib + Linsitinib; first compound 0.03162 µM) | relative viability (Tipifarnib + Linsitinib; first compound 0.1 µM) | relative viability (Tipifarnib + Linsitinib; first compound 0.3162 µM) | relative viability (Tipifarnib + Linsitinib; first compound 1 µM) |
| --- | --- | --- | --- | --- | --- | --- | --- | --- | --- | --- | --- | --- | --- | --- | --- | --- | --- | --- | --- | --- |
| NCI-H1651 | 1.15 | 1.21 | 0.994 | 0.912 | 0.895 | 0.921 | 0.934 | 0.797 | 0.684 | 0.753 | 0.833 | 0.79 | 0.85 | 0.717 | 0.831 | 1.18 | 1.06 | 0.964 | 0.892 | 0.961 |
| NCI-H1666 | 0.853 | 0.758 | 0.727 | 0.644 | 0.637 | 1 | 0.92 | 0.94 | 0.842 | 0.806 | 0.923 | 0.888 | 0.866 | 0.873 | 0.748 | 0.719 | 0.704 | 0.623 | 0.549 | 0.573 |
| NCI-H1734 | 0.882 | 0.718 | 0.635 | 0.464 | 0.431 | 0.198 | 0.147 | 0.171 | 0.168 | 0.164 | 0.902 | 0.832 | 0.729 | 0.458 | 0.487 | 0.875 | 0.85 | 0.709 | 0.694 | 0.48 |
| NCI-H1755 | 1.02 | 0.971 | 0.968 | 0.776 | 0.851 | 0.516 | 0.475 | 0.516 | 0.545 | 0.201 | 0.88 | 0.889 | 0.908 | 0.849 | 0.456 | 0.995 | 0.957 | 0.928 | 0.913 | 0.897 |
| NCI-H1793 | 0.409 | 0.481 | 0.441 | 0.373 | 0.353 | 0.23 | 0.173 | 0.196 | 0.134 | 0.138 | 0.626 | 0.577 | 0.616 | 0.44 | 0.411 | 0.983 | 0.577 | 0.737 | 0.751 | 0.576 |
| NCI-H1915 | 0.791 | 0.65 | 0.768 | 0.455 | 0.469 | 0.681 | 0.638 | 0.48 | 0.44 | 0.428 | 1.01 | 0.816 | 0.606 | 0.593 | 0.577 | 0.902 | 0.695 | 0.631 | 0.542 | 0.583 |
| NCI-H1944 | 1.18 | 0.826 | 0.913 | 0.519 | 0.524 | 0.641 | 0.657 | 0.363 | 0.372 | 0.393 | 0.842 | 0.803 | 0.561 | 0.472 | 0.459 | 1.3 | 1 | 1.09 | 0.644 | 0.737 |
| NCI-H1975 | 1.29 | 1.04 | 1.08 | 0.541 | 0.734 | 0.235 | 0.282 | 0.163 | 0.172 | 0.106 | 0.936 | 0.967 | 0.939 | 0.604 | 0.568 | 1.07 | 1.16 | 0.876 | 0.614 | 0.714 |
| NCI-H1993 | 0.852 | 0.866 | 0.765 | 0.645 | 0.671 | 0.697 | 0.644 | 0.57 | 0.504 | 0.481 | 0.832 | 0.716 | 0.589 | 0.605 | 0.548 | 0.772 | 0.746 | 0.73 | 0.732 | 0.789 |
| NCI-H2009 | 1.13 | 1.06 | 0.785 | 0.63 | 0.744 | 0.955 | 0.827 | 0.786 | 0.528 | 0.599 | 1.3 | 1.11 | 0.84 | 0.645 | 0.7 | 1.19 | 1.09 | 0.903 | 0.702 | 0.667 |
| NCI-H2023 | 1.01 | 0.773 | 0.68 | 0.457 | 0.47 | 0.749 | 0.486 | 0.386 | 0.337 | 0.286 | 0.958 | 0.7 | 0.609 | 0.336 | 0.505 | 0.598 | 0.503 | 0.37 | 0.329 | 0.384 |
| NCI-H2085 | 0.862 | 0.788 | 0.546 | 0.611 | 0.514 | 0.406 | 0.317 | 0.34 | 0.295 | 0.34 | 0.853 | 0.6 | 0.493 | 0.497 | 0.589 | 0.923 | 0.651 | 0.514 | 0.404 | 0.479 |
| NCI-H2087 | 0.918 | 0.559 | 0.407 | 0.411 | 0.467 | 0.185 | 0.154 | 0.165 | 0.141 | 0.152 | 0.999 | 0.371 | 0.333 | 0.292 | 0.3 | 0.797 | 0.583 | 0.514 | 0.5 | 0.447 |
| NCI-H2126 | 0.888 | 0.822 | 0.845 | 0.74 | 0.709 | 0.982 | 0.947 | 0.7 | 0.876 | 0.723 | 1.06 | 1.55 | 1.1 | 1.12 | 1.12 | 0.758 | 0.617 | 0.692 | 0.692 | 0.682 |
| NCI-H2228 | 0.878 | 0.71 | 1.06 | 0.735 | 0.527 | 0.126 | 0.126 | 0.165 | 0.145 | 0.157 | 1.04 | 0.815 | 0.636 | 0.495 | 0.672 | 0.771 | 0.416 | 0.611 | 0.382 | 0.494 |
| NCI-H2347 | 0.782 | 0.576 | 0.643 | 0.627 | 0.598 | 0.671 | 0.298 | 0.401 | 0.386 | 0.28 | 1.34 | 0.76 | 0.723 | 0.756 | 0.528 | 0.973 | 0.739 | 0.649 | 0.693 | 0.735 |
